Measured values taken from ChEMBL document CHEMBL4304775, “Identification and characterization of a novel chemotype for human TLR8 inhibitors” (Eur J Med Chem, 2019).
Calls of active or inactive are those of the source. The rule behind the calls is not given here.

Key:
[1] = target: T1, Toll-like receptor 8 (Homo sapiens) (UniProt Q9NR97); experiment: Antagonist activity at human TLR8 expressed in HEK-Blue cells assessed as reduction in CL075-induced NF-kappaB activation at 10 to 25 uM incubated for 1 hr followed by CL075-stimulation and measured after 24 hrs by quanti-blue SEAP assay relative to control; assay type: cell-based
T1 sequence (whole entry): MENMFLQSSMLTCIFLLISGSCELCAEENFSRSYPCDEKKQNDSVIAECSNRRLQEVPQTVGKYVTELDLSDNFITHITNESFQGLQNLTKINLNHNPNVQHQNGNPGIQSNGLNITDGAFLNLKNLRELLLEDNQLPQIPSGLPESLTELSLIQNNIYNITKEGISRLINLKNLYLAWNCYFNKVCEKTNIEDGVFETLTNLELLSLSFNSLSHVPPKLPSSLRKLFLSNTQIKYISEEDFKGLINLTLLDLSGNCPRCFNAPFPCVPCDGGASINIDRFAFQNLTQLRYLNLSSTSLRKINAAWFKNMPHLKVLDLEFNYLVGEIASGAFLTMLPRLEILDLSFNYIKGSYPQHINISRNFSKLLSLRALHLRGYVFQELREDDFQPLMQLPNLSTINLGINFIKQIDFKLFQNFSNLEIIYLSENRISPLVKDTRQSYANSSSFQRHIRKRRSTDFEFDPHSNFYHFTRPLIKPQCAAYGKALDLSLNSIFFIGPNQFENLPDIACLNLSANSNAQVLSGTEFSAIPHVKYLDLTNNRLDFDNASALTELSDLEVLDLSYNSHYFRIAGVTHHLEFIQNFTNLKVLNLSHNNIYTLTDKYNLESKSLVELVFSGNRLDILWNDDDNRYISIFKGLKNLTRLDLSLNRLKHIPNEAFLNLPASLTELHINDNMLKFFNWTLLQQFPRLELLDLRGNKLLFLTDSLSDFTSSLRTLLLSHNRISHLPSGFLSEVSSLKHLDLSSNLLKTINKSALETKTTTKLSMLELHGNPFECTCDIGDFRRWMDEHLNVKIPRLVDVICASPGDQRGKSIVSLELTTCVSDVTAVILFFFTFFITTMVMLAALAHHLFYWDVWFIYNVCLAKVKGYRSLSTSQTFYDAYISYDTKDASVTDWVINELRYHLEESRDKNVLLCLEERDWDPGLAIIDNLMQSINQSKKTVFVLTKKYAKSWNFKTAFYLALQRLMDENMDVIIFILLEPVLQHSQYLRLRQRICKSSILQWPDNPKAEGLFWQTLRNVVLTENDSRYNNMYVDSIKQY

[2] = target: T1, Toll-like receptor 8 (Homo sapiens); experiment: Antagonist activity at human TLR8 expressed in HEK-Blue cells assessed as reduction in CL075-induced NF-kappaB activation at 10 uM incubated for 1 hr followed by CL075-stimulation and measured after 24 hrs by quanti-blue SEAP assay; assay type: cell-based
THP-1 [3] = experiment: Antiinflammatory activity in human THP1 cells assessed as reduction in CL075-induced IL-8 secretion at 10 to 25 uM preincubated for 1 hr followed by CL075-stimulation and measured after 24 hrs by ELISA relative to control; assay type: functional
THP-1 [4] = experiment: Antiinflammatory activity in human THP1 cells assessed as reduction in CL075-induced TNF secretion at 10 to 25 uM preincubated for 1 hr followed by CL075-stimulation and measured after 4 hrs by ELISA relative to control; assay type: functional
[5] = target: Toll-like receptor 2 (Homo sapiens) (UniProt O60603); experiment: Antagonist activity at TLR2 in human THP1 cells assessed as inhibition of Pam2CSK4/Pam3CSK4-induced IL-8 secretion preincubated for 1 hr followed by Pam2CSK4/Pam3CSK4 stimulation and measured after 24 hrs by ELISA; assay type: cell-based
[6] = target: Toll-like receptor 5 (Homo sapiens) (UniProt O60602); experiment: […] at TLR5 in human THP1 cells assessed as inhibition of flagellin-induced IL-8 secretion preincubated for 1 hr followed by flagellin stimulation and measured after 24 hrs by ELISA; assay type: cell-based
[7] = target: T2, Toll-like receptor 9 (Homo sapiens) (UniProt Q9NR96); experiment: […] at TLR9 in human THP1 cells assessed as inhibition of ODN2006-induced IL-8 secretion preincubated for 1 hr followed by ODN2006-stimulation and measured after 24 hrs by ELISA; assay type: cell-based
T2 sequence (whole entry): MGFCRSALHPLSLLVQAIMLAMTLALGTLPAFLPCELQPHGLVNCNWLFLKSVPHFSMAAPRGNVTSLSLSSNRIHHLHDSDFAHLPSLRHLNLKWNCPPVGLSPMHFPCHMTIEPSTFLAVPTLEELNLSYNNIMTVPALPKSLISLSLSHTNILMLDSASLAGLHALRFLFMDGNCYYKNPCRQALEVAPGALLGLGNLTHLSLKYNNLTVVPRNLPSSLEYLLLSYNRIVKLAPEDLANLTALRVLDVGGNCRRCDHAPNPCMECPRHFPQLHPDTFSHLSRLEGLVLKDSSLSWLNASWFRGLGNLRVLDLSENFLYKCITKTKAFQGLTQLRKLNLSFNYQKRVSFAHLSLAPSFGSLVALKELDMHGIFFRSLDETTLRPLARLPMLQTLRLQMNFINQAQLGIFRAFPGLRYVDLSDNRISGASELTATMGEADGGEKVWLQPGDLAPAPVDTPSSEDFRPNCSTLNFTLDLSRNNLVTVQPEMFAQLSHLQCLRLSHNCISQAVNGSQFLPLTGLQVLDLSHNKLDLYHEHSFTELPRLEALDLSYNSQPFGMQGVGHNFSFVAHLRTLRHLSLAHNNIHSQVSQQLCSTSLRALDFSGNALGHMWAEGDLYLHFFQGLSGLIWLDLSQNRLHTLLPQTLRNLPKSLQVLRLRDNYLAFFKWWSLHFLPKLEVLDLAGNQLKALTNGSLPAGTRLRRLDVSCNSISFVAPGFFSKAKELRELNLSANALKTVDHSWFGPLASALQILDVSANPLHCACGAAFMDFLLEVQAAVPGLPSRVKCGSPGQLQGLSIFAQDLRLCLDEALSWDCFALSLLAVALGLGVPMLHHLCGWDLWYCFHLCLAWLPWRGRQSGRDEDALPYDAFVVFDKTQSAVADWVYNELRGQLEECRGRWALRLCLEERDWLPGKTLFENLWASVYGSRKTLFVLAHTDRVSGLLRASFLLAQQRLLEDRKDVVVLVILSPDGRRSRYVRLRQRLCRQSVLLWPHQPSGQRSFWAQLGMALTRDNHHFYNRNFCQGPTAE

[8] = target: Toll-like receptor 3 (Homo sapiens) (UniProt O15455); experiment: […] at TLR3 in human THP1 cells assessed as inhibition of poly(I:C)-induced IL-8 secretion preincubated for 1 hr followed by poly(I:C)-stimulation and measured after 24 hrs by ELISA; assay type: cell-based
[9] = target: Toll-like receptor 3 (Homo sapiens) (UniProt O15455); experiment: […] at TLR3 in human THP1 cells assessed as inhibition of poly(A:U)-induced IL-8 secretion preincubated for 1 hr followed by poly(A:U)-stimulation and measured after 24 hrs by ELISA; assay type: cell-based
[10] = target: T1, Toll-like receptor 8 (Homo sapiens); experiment: Activation of human TLR8 expressed in HEK-Blue cells assessed as increase in NF-kappaB activation at 5 to 25 uM incubated for 24 hrs by quanti-blue SEAP assay; assay type: cell-based

Chain of Toll-like receptor 5 (Homo sapiens) (O60602 whole entry): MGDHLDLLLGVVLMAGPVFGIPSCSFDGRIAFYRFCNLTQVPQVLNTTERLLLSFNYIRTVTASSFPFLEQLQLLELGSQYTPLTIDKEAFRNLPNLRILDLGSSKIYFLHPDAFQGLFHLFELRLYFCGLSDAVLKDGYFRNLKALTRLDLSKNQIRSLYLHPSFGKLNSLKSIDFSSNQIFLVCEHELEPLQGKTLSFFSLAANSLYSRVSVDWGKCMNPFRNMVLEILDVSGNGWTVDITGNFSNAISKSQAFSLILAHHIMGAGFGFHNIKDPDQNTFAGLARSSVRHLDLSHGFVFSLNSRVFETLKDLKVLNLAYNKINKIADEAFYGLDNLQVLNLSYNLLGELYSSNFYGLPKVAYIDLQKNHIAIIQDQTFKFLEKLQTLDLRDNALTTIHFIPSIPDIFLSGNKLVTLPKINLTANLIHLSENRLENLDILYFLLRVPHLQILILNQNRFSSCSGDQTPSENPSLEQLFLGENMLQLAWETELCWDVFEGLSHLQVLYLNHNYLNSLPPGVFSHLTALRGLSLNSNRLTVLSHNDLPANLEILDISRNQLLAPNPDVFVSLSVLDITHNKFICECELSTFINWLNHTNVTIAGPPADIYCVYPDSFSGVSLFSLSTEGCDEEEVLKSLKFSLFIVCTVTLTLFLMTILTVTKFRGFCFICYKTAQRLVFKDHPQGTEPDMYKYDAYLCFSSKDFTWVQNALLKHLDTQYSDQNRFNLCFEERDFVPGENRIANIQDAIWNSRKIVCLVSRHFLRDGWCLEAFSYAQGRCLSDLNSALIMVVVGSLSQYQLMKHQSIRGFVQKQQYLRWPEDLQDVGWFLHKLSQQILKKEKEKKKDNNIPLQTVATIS
Chain of Toll-like receptor 2 (Homo sapiens) (O60603 whole entry): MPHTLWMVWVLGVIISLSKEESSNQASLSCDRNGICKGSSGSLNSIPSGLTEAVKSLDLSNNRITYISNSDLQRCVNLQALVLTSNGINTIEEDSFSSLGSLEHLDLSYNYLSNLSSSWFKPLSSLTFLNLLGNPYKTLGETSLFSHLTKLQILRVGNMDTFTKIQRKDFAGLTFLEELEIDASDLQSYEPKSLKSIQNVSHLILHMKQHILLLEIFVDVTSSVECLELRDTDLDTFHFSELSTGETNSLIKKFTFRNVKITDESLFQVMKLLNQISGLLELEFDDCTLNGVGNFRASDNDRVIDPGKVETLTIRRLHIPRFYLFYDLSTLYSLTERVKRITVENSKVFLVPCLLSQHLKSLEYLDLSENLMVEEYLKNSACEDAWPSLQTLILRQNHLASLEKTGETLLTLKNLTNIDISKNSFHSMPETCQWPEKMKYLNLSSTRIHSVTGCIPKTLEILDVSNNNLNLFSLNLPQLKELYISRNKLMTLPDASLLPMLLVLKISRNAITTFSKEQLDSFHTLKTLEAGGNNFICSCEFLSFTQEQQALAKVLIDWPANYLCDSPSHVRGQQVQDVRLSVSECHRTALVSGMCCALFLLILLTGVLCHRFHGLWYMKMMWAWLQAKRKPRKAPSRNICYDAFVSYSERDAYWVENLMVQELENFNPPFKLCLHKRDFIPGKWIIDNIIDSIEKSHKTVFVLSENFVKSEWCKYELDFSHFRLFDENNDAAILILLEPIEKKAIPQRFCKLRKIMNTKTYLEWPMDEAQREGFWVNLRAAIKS
Chain of Toll-like receptor 3 (Homo sapiens) (O15455 whole entry): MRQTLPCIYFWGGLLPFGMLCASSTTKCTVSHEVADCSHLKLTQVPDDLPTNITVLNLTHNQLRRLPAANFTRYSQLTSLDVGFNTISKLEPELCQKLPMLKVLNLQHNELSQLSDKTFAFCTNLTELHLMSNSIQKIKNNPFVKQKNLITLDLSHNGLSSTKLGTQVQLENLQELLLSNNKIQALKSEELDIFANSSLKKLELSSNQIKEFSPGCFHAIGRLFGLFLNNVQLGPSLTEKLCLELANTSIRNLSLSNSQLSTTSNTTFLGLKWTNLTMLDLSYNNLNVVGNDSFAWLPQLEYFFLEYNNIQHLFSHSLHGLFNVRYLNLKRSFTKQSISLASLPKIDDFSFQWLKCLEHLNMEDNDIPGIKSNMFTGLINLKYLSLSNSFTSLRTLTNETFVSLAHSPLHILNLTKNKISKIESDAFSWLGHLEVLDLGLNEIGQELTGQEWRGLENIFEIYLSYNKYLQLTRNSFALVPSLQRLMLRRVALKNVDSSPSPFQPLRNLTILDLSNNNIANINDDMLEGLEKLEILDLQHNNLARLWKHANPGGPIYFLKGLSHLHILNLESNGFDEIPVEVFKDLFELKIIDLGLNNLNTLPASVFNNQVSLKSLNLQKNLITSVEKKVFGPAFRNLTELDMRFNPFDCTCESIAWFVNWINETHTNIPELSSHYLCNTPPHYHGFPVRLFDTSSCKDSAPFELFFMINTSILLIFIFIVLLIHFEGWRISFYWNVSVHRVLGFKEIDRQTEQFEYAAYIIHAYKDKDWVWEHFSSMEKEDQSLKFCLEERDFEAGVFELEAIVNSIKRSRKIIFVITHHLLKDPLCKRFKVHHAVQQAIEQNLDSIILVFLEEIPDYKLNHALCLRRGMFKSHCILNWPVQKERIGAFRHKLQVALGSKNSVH

inhibition [1] | inhibition [2] | inhibition [5] | inhibition [6] | inhibition [7] | inhibition [8] | inhibition [9] | Activity [10] | Compound | inhibition (INH) (THP-1 [3]) | inhibition (INH) (THP-1 [4])
100% | Active | inactive | inactive | inactive | inactive | inactive | inactive | FC(F)(F)c1cc(-c2ccccc2)nc(NCc2cccs2)n1 | >70% | 40%
100% | Active | inactive | inactive | inactive | inactive | inactive | inactive | CCCCNc1nc(-c2cccs2)cc(C(F)(F)F)n1 | 50% | >60%
50% | Active | inactive | inactive | inactive | inactive | inactive | inactive | FC(F)(F)c1cc(-c2ccco2)nc(NCc2cccs2)n1 | >70% | 40%
